Source: PubChem BioAssay (NCI)
Where “and” joins values, the source holds several entries; their conditions need not be identical. Equal values may be shown once.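 Protocol summary: plate cells (96-well), add compound at 5 concentrations, incubate 48 h, interpolate endpoints linearly. GI50 = concentration required for 50% inhibition of growth. The concentration for full growth arrest is given as TGI.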

Assays:
Assay in all cases: NCI tumour cell line growth inhibition, 48 h
[1] = system: NCI-H226 lung
[2] = system: HL-60(TB) leukemia
[3] = system: UACC-62 melanoma
[4] = system: MCF7 breast
[5] = system: UACC-257 melanoma
[6] = system: LOX IMVI melanoma
[7] = system: SR leukemia
[8] = system: SK-MEL-5 melanoma
[9] = system: MALME-3M melanoma
[10] = system: OVCAR-4 ovarian

Row | SMILES | GI50 [1] | TGI [1] [µM] | GI50 [2] | TGI [2] | GI50 [3] | TGI [3] | GI50 [4] | TGI [4] [µM] | GI50 [5] | TGI [5] | GI50 [6] | TGI [6] | GI50 [7] | TGI [7] [µM] | GI50 [8] | TGI [8] | GI50 [9] | TGI [9] | GI50 [10] | TGI [10]
1 | O=[N+]([O-])/C(=C/C=C/c1ccccc1)c1ccccc1 | 6.07 µM | 12.4 | 1.09 µM | 3.55 µM | 1.55 µM | 3.1 µM | 1.48 µM | 4.23 | 2.74 µM | 9.32 µM | 1.67 µM | 3.29 µM | 1.01 µM | 4.05 | 3.16 µM | 12.1 µM | 1.84 µM | 5.4 µM | 2.47 µM | 7.22 µM
2 | CCOc1ccc(N=Nc2c(-c3ccccc3)nn(C(=O)CC(=O)Nc3ccccc3Cl)c2-c2ccccc2)cc1 | – | > 100 | – | > 100 µM | – | > 100 µM | – | – | – | > 100 µM | – | > 100 µM | – | > 100 | – | > 100 µM | – | > 100 µM | – | > 100 µM
3 | O=C(Nc1ccc(-n2cc(-c3ccncc3)c(-c3ccc(Cl)c(O)c3)n2)cc1)c1ccc(Cl)c(Cl)c1 | 26.1 µM | > 100 | 2.97 µM | 6.35 µM | 3.22 µM | 22.4 µM | 4.63 µM | > 100 | 4.74 µM | > 100 µM | – | – | 3.6 µM | > 100 | 1.15 µM | 2.43 µM | – | – | > 100 µM | > 100 µM
4 | CC(C)(C)c1cnc(CSc2cnc(NC(=O)C3CCNCC3)s2)o1 | 0.663 µM and 0.222 µM | – | 0.0937 µM and 0.0791 µM | 0.976 µM and 0.461 µM | 0.16 µM and 0.178 µM | 0.403 µM and 0.702 µM | 0.0522 µM and 0.0505 µM | > 53.3 | 0.221 µM and 0.317 µM | 0.634 µM and 1.74 µM | 0.218 µM and 0.131 µM | 14.5 µM and > 10 µM | 0.0346 µM and 0.0265 µM | 1.6 | 0.238 µM and 0.563 µM | 0.644 µM and 2.18 µM | 0.229 µM and 0.286 µM | 0.511 µM and 0.907 µM | 0.273 µM and 0.281 µM | 2.67 µM and > 8.21 µM
5 | Nc1cccc(C(=O)/C=C/c2ccccc2O)c1 | – | > 100 | – | 46.9 µM | – | > 100 µM | – | – | – | > 100 µM | – | > 100 µM | – | > 100 | – | > 100 µM | – | > 100 µM | – | –
6 | Cc1cccc(NC(=O)CSc2nnc(-c3ccc(N=Cc4ccc(Cl)cc4)cc3)o2)c1 | – | > 100 | – | > 100 µM | – | > 100 µM | – | – | – | > 100 µM | – | > 100 µM | – | > 100 | – | > 100 µM | – | > 100 µM | – | > 100 µM
7 | COc1cc(C(=O)/C=C/c2c(C)n([O-])c3ccc(Cl)cc3[n+]2=O)cc(OC)c1OC | 32.6 µM | > 100 | 5.76 µM | 23.5 µM | 3.87 µM | 23.1 µM | 3.37 µM | > 100 | 19.5 µM | > 100 µM | 5.78 µM | > 100 µM | 1.86 µM | 5.65 | 12.1 µM | > 100 µM | 36.3 µM | > 100 µM | 9.29 µM | > 100 µM
8 | Cc1ccc(-n2cc(/C(N)=N/O)c3ccccc3c2=O)cc1 | – | > 100 | – | > 100 µM | – | > 100 µM | – | – | – | > 100 µM | – | > 100 µM | – | > 100 | – | > 100 µM | – | > 100 µM | – | –
9 | CN(C)CN(C)c1nc(N(C)C)nc(N(C)C)n1 | – | – | – | > 100 µM | – | > 100 µM | – | – | – | > 100 µM | – | > 100 µM | – | > 100 | – | > 100 µM | – | > 100 µM | – | > 100 µM
10 | OCCN1CCCN(CCCN2c3ccccc3Sc3ccc(C(F)(F)F)cc32)CC1 | 15.1 µM | 39.1 | 1.91 µM | 3.74 µM | – | – | 1.6 µM | 3.14 | 1.94 µM | 3.65 µM | 1.73 µM | 3.21 µM | 2.18 µM | 4.75 | 1.67 µM | 3.09 µM | 2.02 µM | 3.82 µM | 3.11 µM | 13.4 µM
11 | C=C1CCC2C(C)(CO)C(O)CCC2(C)C1C/C=C1\C(=O)OCC1O (stereo not drawn) | – | > 100 | – | > 100 µM | – | 57.5 µM | – | 31.3 | – | 73.8 µM | – | 30.4 µM | – | 42.5 | – | 27.8 µM | – | 30.2 µM | – | 23.5 µM
12 | Cc1cc2nc3c(C(OC4OC(CO)C(O)C(O)C4O)C(O)CO)nn(-c4ccc(F)cc4)c3nc2cc1C (stereo not drawn) | – | – | – | – | – | > 100 µM | – | – | – | > 100 µM | – | > 100 µM | – | > 100 | – | – | – | > 100 µM | – | > 100 µM
13 | CC(C)(C)OC(=O)CC(S(=O)(=O)c1ccccc1)S(=O)(=O)c1ccccc1 | 4.84 µM | 22.7 | 3.19 µM | 12.2 µM | 11.4 µM | 24.1 µM | 13.5 µM | 33 | 3.74 µM | 15.7 µM | 13.8 µM | 33.2 µM | 3.1 µM | 12.1 | 15.5 µM | 28.8 µM | 2.08 µM | 4.36 µM | 1.96 µM | 4.58 µM
14 | Clc1cc(Cl)cc(Nc2ccc3c(OCCCN4CCOCC4)cccc3n2)c1 | 3.17 µM | 10.7 | 2.11 µM | 6.34 µM | 2.01 µM | 4.57 µM | 1.74 µM | 3.48 | 2.05 µM | 4.31 µM | 1.72 µM | 3.24 µM | – | – | 10.1 µM | 23.2 µM | 2.5 µM | 6.33 µM | 10.3 µM | 22.2 µM
15 | COc1cc2c(c(OC)c1OC)-c1ccc(SC)c(=O)cc1C(CC(=O)Oc1ccccc1F)C2 (stereo not drawn) | – | 0.444 | – | 1.37 µM | – | 0.0688 µM | – | – | – | – | – | 4.28 µM | – | > 7.5 | – | – | – | > 7.5 µM | – | > 7.5 µM
16 | COc1ccc(N=C2C(=O)Nc3ccc(Br)cc32)cc1 | – | 35.5 | – | 42.7 µM | – | 19.9 µM | – | 35.2 | – | 48.1 µM | – | 27.4 µM | – | 28.6 | – | 23.3 µM | – | 43 µM | – | –
17 | O=C(Nc1c(Cl)cc([N+](=O)[O-])cc1Cl)C(=O)C(C(=O)c1ccncc1)C1OC(=O)c2ccccc21 (stereo not drawn) | – | > 100 | – | > 100 µM | – | > 100 µM | – | – | – | > 100 µM | – | > 100 µM | – | > 100 | – | – | – | > 100 µM | – | > 100 µM
